Measured values published in US11247965B2 (VenatoRx Pharmaceuticals, Inc., priority 2017, dated 2022).

What was measured:
[1] = In vitro cytotoxicity, MTT cell viability assay in HepG2 cells; assay type: cell-based; settings: human, Cytotoxicity CC50
Summary of the method: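 HepG2 seeded overnight, then 7-day compound exposure (30 μM–1.0 nM, half-log steps), 37 °C. MTT 3-4 h, DMSO solubilization, A492. % of vehicle → CC50, 4-PL fit.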

[2] = system: HBV replication in HepAD38 cells; experiment: Anti-HBV activity in HepAD38 cells, extracellular HBV DNA by QPCR; assay type: cell-based, HBV (genotype D, serotype ayw); settings: Hepatitis B virus, HePAD38, 168 h, read-out: Anti-HBV EC50, HepAD38 cells, extracellular HBV DNA by QPCR, 7 days of incubation
Summary of the method: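 Seven-day compound exposure (30 μM down to 10 nM, half-log steps) after tetracycline withdrawal induced HBV replication in HepAD38 cells. Extracellular viral DNA measured by QPCR (copies/mL via standard curve), normalised to DMSO wells; EC50 from 4-parameter non-linear regression.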

| Structure (SMILES) | CC50 at 7 days [1] [µM] | EC50 [2] [µM] |
| --- | --- | --- |
| Cc1cc(NC(=O)c2ccc(F)c(C(F)(F)C(=O)N3CCN4C(=O)NCC4C3)c2)ccc1F (stereo not shown) [Example 264, 3-(1,1-difluoro-2-oxo-2-(3-oxohexahydroimidazo[1,5-a]pyrazin-7(1H)-yl)ethyl)-4-fluoro-N-(4-fluoro-3-methylphenyl)benzamide] | > 30 | < 5 |
| Cc1cc(NC(=O)c2ccc(F)c(C(F)(F)C(=O)N3[C@H]4CC[C@@H]3c3cn[nH]c3C4)c2)ccc1F [Example 265, 3-(1,1-difluoro-2-((4R,7S)-1,4,5,6,7,8-hexahydro-4,7-epiminocyclohepta[c]pyrazol-9-yl)-2-oxoethyl)-4-fluoro-N-(4-fluoro-3-methylphenyl)benzamide] | 5 to 30 | < 5 |
| Cc1cc(NC(=O)c2ccc(F)c(C(F)(F)C(=O)N3[C@@H]4COC[C@H]3CN(S(N)(=O)=O)C4)c2)ccc1F [Example 266, 3-(1,1-difluoro-2-oxo-2-((1R,5S)-7-sulfamoyl-3-oxa-7,9-diazabicyclo[3.3.1]nonan-9-yl)ethyl)-4-fluoro-N-(4-fluoro-3-methylphenyl)benzamide] | > 30 | < 5 |
| Cc1cc(NC(=O)c2ccc(F)c(C(F)(F)C(=O)N3CCC(N4CCOCC4)CC3)c2)ccc1F [Example 267, 3-(1,1-difluoro-2-(4-morpholinopiperidin-1-yl)-2-oxoethyl)-4-fluoro-N-(4-fluoro-3-methylphenyl)benzamide] | 5 to 30 | 5 to 30 |
| Cc1cc(NC(=O)c2ccnc(C(F)(F)C(=O)N3CCc4nc(N)sc4C3)c2)ccc1F [Example 268, 2-(2-(2-amino-6,7-dihydrothiazolo[5,4-c]pyridin-5(4H)-yl)-1,1-difluoro-2-oxoethyl)-N-(4-fluoro-3-methylphenyl)isonicotinamide] | > 30 | 5 to 30 |
| Cc1cc(NC(=O)c2ccc(F)c(C(F)(F)C(=O)N3CCC4(CC3)NC(=O)NC4=O)c2)ccc1F [Example 269, 3-(2-(2,4-dioxo-1,3,8-triazaspiro[4.5]decan-8-yl)-1,1-difluoro-2-oxoethyl)-4-fluoro-N-(4-fluoro-3-methylphenyl)benzamide] | > 30 | < 5 |
| Cc1cc(NC(=O)c2ccc(F)c(C(F)(F)C(=O)N3CCc4[nH]nnc4C3)c2)ccc1F [Example 270, 3-(1,1-difluoro-2-oxo-2-(1,4,6,7-tetrahydro-5H-[1,2,3]-triazolo[4,5-c]pyridin-5-yl)ethyl)-4-fluoro-N-(4-fluoro-3-methylphenyl)benzamide] | 5 to 30 | < 5 |
| Cc1cc(NC(=O)c2ccc(F)c(C(F)(F)C(=O)NC34CC5CC(CC3C5)C4)c2)ccc1F [Example 271, 3-(1,1-difluoro-2-(((2R,3as,5S,6as)-hexahydro-2,5-methanopentalen-3a(1H)-yl)amino)-2-oxoethyl)-4-fluoro-N-(4-fluoro-3-methylphenyl)benzamide] | 5 to 30 | 5 to 30 |
| Cc1cc(NC(=O)c2ccc(F)c(C(F)(F)C(=O)NC34CC5CC(CC(O)(C5)C3)C4)c2)ccc1F [Example 272, 3-(1,1-difluoro-2-(((1r,3s,5R,7S)-3-hydroxyadamantan-1-yl)amino)-2-oxoethyl)-4-fluoro-N-(4-fluoro-3-methylphenyl)benzamide] | 5 to 30 | 5 to 30 |
| Cc1cc(NC(=O)c2ccc(F)c(C(F)(F)C(=O)N3C4COCC3CC(=NO)C4)c2)ccc1F [Example 273, 3-(1,1-difluoro-2-(7-(hydroxyimino)-3-oxa-9-azabicyclo[3.3.1]nonan-9-yl)-2-oxoethyl)-4-fluoro-N-(4-fluoro-3-methylphenyl)benzamide] | 5 to 30 | < 5 |
| Cc1cc(NC(=O)c2ccc(F)c(C(F)(F)C(=O)N3[C@@H]4CC[C@H]3CC(O)(CN)C4)c2)ccc1F (stereo partly drawn) [Example 276, 3-(2-((1R,5S)-3-(aminomethyl)-3-hydroxy-8-azabicyclo[3.2.1]octan-8-yl)-1,1-difluoro-2-oxoethyl)-4-fluoro-N-(4-fluoro-3-methylphenyl)benzamide] | 5 to 30 | < 5 |
| CO[C@H]1CC2CC[C@H](C1)N2C(=O)C(F)(F)c1cc(C(=O)Nc2ccc(F)c(C)c2)ccc1F [Example 277, 3-(1,1-difluoro-2-((1R,3s,5S)-3-methoxy-8-azabicyclo[3.2.1]octan-8-yl)-2-oxoethyl)-4-fluoro-N-(4-fluoro-3-methylphenyl)benzamide] | 5 to 30 | < 5 |
| Cc1cc(NC(=O)c2ccc(F)c(C(F)(F)C(=O)N3CCC(F)(F)CC3)c2)ccc1F [Example 278, 3-(2-(4,4-difluoropiperidin-1-yl)-1,1-difluoro-2-oxoethyl)-4-fluoro-N-(4-fluoro-3-methylphenyl)benzamide] | > 30 | 5 to 30 |
| Nc1nc2c(s1)CN(C(=O)C(F)(F)c1cc(C(=O)Nc3ccc(F)c(Cl)c3)ccc1F)CC2 [Example 279, 3-(2-(2-amino-6,7-dihydrothiazolo[5,4-c]pyridin-5(4H)-yl)-1,1-difluoro-2-oxoethyl)-N-(3-chloro-4-fluorophenyl)-4-fluorobenzamide] | 5 to 30 | < 5 |
| Cc1cc(NC(=O)c2ccc(F)c(C(F)(F)C(=O)N3C[C@H]4CC[C@@H](C3)C4=O)c2)ccc1F [Example 280, 3-(1,1-difluoro-2-oxo-2-((1R,5S)-8-oxo-3-azabicyclo[3.2.1]octan-3-yl)ethyl)-4-fluoro-N-(4-fluoro-3-methylphenyl)benzamide] | 5 to 30 | < 5 |
| Cc1cc(NC(=O)c2ccc(F)c(C(F)(F)C(=O)N3CC4CCC(C3)C4O)c2)ccc1F [Example 281, 3-(1,1-difluoro-2-((1R,5S,8s)-8-hydroxy-3-azabicyclo[3.2.1]octan-3-yl)-2-oxoethyl)-4-fluoro-N-(4-fluoro-3-methylphenyl)benzamide] | 5 to 30 | < 5 |
| Cc1cc(NC(=O)c2ccnc(C(F)(F)C(=O)N3[C@@H]4CC[C@H]3C[C@H](C(=O)O)C4)c2)ccc1F [Example 282, (1R,3s,5S)-8-(2,2-difluoro-2-(4-((4-fluoro-3-methylphenyl)carbamoyl)pyridin-2-yl)acetyl)-8-azabicyclo[3.2.1]octane-3-carboxylic acid] | > 30 | 5 to 30 |
| Cc1cc(NC(=O)c2ccc(F)c(C(F)(F)C(=O)N3CC4CNCC4C3)c2)ccc1F (stereo not shown) [Example 283, 3-(1,1-difluoro-2-(hexahydropyrrolo[3,4-c]pyrrol-2(1H)-yl)-2-oxoethyl)-4-fluoro-N-(4-fluoro-3-methylphenyl)benzamide] | 5 to 30 | < 5 |
| CNC(=O)NCC(=O)N1CC2CN(C(=O)C(F)(F)c3cc(C(=O)Nc4ccc(F)c(C)c4)ccc3F)CC2C1 (stereo not shown) [Example 284, 3-(1,1-difluoro-2-(5-((methylcarbamoyl)glycyl)hexahydropyrrolo[3,4-c]pyrrol-2(1H)-yl)-2-oxoethyl)-4-fluoro-N-(4-fluoro-3-methylphenyl)benzamide] | > 30 | 5 to 30 |
| Cc1cc(NC(=O)c2ccc(F)c(C(F)(F)C(=O)N3CCC(N)C(C)(C)C3)c2)ccc1F (stereo not shown) [Example 285, 3-(2-(4-amino-3,3-dimethylpiperidin-1-yl)-1,1-difluoro-2-oxoethyl)-4-fluoro-N-(4-fluoro-3-methylphenyl)benzamide] | 5 to 30 | < 5 |
| Cc1cc(NC(=O)c2ccc(F)c(C(F)(F)C(=O)N3CCC(NS(C)(=O)=O)C(C)(C)C3)c2)ccc1F (stereo not shown) [Example 286, 3-(2-(3,3-dimethyl-4-(methylsulfonamido)piperidin-1-yl)-1,1-difluoro-2-oxoethyl)-4-fluoro-N-(4-fluoro-3-methylphenyl)benzamide] | 5 to 30 | < 5 |
| CC(=O)NC1CCN(C(=O)C(F)(F)c2cc(C(=O)Nc3ccc(F)c(C)c3)ccc2F)CC1(C)C (stereo not shown) [Example 287, 3-(2-(4-acetamido-3,3-dimethylpiperidin-1-yl)-1,1-difluoro-2-oxoethyl)-4-fluoro-N-(4-fluoro-3-methylphenyl)benzamide] | 5 to 30 | < 5 |
| CC(=O)Nc1nc2c(s1)CN(C(=O)C(F)(F)c1cc(C(=O)Nc3ccc(F)c(C)c3)ccc1F)CC2 [Example 288, 3-(2-(2-acetamido-6,7-dihydrothiazolo[5,4-c]pyridin-5(4H)-yl)-1,1-difluoro-2-oxoethyl)-4-fluoro-N-(4-fluoro-3-methylphenyl)benzamide] | 5 to 30 | < 5 |
| Cc1cc(NC(=O)c2ccc(F)c(C(F)(F)C(=O)N3CCc4[nH]c(=O)oc4C3)c2)ccc1F [Example 289, 3-(1,1-difluoro-2-oxo-2-(2-oxo-1,4,6,7-tetrahydrooxazolo[5,4-c]pyridin-5(2H)-yl)ethyl)-4-fluoro-N-(4-fluoro-3-methylphenyl)benzamide] | 5 to 30 | < 5 |
| Cc1cc(NC(=O)c2ccc(F)c(C(F)(F)C(=O)N3[C@H](C)CN(S(=O)(=O)c4cccnc4)C[C@@H]3C)c2)ccc1F [Example 290, 3-(2-((2S,6R)-2,6-dimethyl-4-(pyridin-3-ylsulfonyl)piperazin-1-yl)-1,1-difluoro-2-oxoethyl)-4-fluoro-N-(4-fluoro-3-methylphenyl)benzamide] | 5 to 30 | < 5 |
| CNS(=O)(=O)N1C[C@@H](C)N(C(=O)C(F)(F)c2cc(C(=O)Nc3ccc(F)c(C)c3)ccc2F)[C@@H](C)C1 [Example 291, 3-(2-((2S,6R)-2,6-dimethyl-4-(N-methylsulfamoyl)piperazin-1-yl)-1,1-difluoro-2-oxoethyl)-4-fluoro-N-(4-fluoro-3-methylphenyl)benzamide] | 5 to 30 | < 5 |
